Source: patent US11766446B2, “Treatment of aging-associated conditions by DNA degradation” (The General Hospital Corporation, priority 2018, dated 2023)

Legend:
Type in all cases: cell-based, human
MRC5 cells [1] = assay: Immunofluorescence anti-dsDNA staining of nuclear and cytosolic DNA in young and old MRC5 cells; settings: 24 hr
Procedure: Cells were cultured in Lab-Tek II 8-well chamber slides, fixed with 4% PFA (10 min), permeabilized with 0.5% Triton X-100 (5 min), then blocked and stained with antibodies against: dsDNA (Santa Cruz, 1:500), 7H2AX, NUP98, pTBK1 (both Cell Signaling, 1:200), LC3 (Novus Biologicals, 1:200) or biotin-LAMP1 (BioLegend, 1:200), followed by fluorescent secondary antibodies (45 min). Methanol fixation was used for anti-pIRF3 (Cell Signaling, 1:200) staining.
Nuclear and cytosolic DNA signals from 5 of 10× or 20× images (˜50-200 cells per image) were quantified using Fiji. Region of interest (ROI) was defined in each image and threshold set to measure fluorescence above background. Nuclear ROI was defined by DAPI staining and its intensity subtracted from total fluorescence to determine cytoplasmic signal. Quantitative fluorescence was presented as integrated density per cell with cell number determined by particle count of DAPI.

MRC5 cells [2] = assay: TUNEL assay detecting DNA fragmentation (nicked DNA) in young and old MRC5 cells; settings: Ara-C 10 μM, 24 hr, FIG. 1B
Source text: (§1) Ara-C, bafilomycin A1 and rapamycin were from Sigma-Aldrich (St. Louis, Mo.); SA β-gal Staining Kit was from Cell Signaling (Danvers, Mass.); TUNEL Apo-Green detection reaction mixture was from Biomake (Houston, Tex.).

MRC5 cells [3] = assay: SA-β-gal activity staining in young and old MRC5 cells; settings: aged MRC5 cells; Ara-C 10 μM, 24 h; FIG. 6F
Source text: as §1

MRC5 cells [4] = assay: RT-qPCR expression of IFNI-inducible, inflammatory and cell-cycle genes in young and old cells; settings: old MRC5 cells
Procedure: 0.25-1 μg of total RNA was reverse-transcribed with High Capacity cDNA Reverse Transcription kit (Applied Biosystems). Quantitative PCR was then performed using LightCyler® 480 SYBR Master I reagents (Roche) on LightCyler® 96 instrument. Transcript levels were normalized to B2M or GAPDH. Primer pairs used are listed below.

[5] = bafilomycin 20 nM, 8 hr, FIG. 2F

SMILES: Nc1ccn([C@@H]2O[C@H](CO)[C@@H](O)[C@@H]2O)c(=O)n1 [Ara-C, cytarabine]
- nuclear DNA in old cells (anti-dsDNA IF) (MRC5 cells [1]; old MRC5 cells, Ara-C 10 μM, FIG. 1C): more nuclear DNA
- extranuclear DNA in young cells (anti-dsDNA IF) (MRC5 cells [1]; young MRC5 cells, Ara-C 10 μM, FIG. 1C): more extranuclear DNA
- nicked DNA (TUNEL staining) in old cells (MRC5 cells [2]): more intense
- percentage of SA-β-gal+ cells (MRC5 cells [3]): further increased
- CXCL10 expression (RT-qPCR) (MRC5 cells [4]; Ara-C 10 μM, 24 hr, FIG. 2A): further increased
- IL-6 expression (RT-qPCR) (MRC5 cells [4]; Ara-C 10 μM, 24 hr, FIG. 2A): further increased
- MX1 expression (RT-qPCR) (MRC5 cells [4]; Ara-C 10 μM, 24 hr, FIG. 2A): further increased

SMILES: CO/C1=C\C(C)=C\[C@@H](C)[C@@H](O)[C@@H](C)C/C(C)=C/C=C/[C@H](OC)[C@@H]([C@@H](C)[C@@H](O)[C@H](C)[C@@]2(O)C[C@@H](O)[C@H](C)[C@@H](C(C)C)O2)OC1=O [bafilomycin A1]
- CXCL10 expression (RT-qPCR) (MRC5 cells [4]; [5]): increased levels
- MX1 expression (RT-qPCR) (MRC5 cells [4]; [5]): increased levels

SMILES: CCC(=C/[C@H](C)C/C=C/C(C)=C/[C@@H](C)C(=O)[C@@H](C)[C@H](O)[C@@H](C)C/C(C)=C/C(=O)O)/C=C/[C@@H]1OC(=O)C=C[C@@H]1C [leptomycin B]
- dsDNA staining in nuclei (anti-dsDNA IF) (MRC5 cells [1]; LMB-treated cells, 20 nM, FIG. 1D): some increase
- cytosolic DNA in old cells (anti-dsDNA IF) (MRC5 cells [1]; old MRC5 cells, LMB 20 nM, FIG. 1D): dramatic reduction
